From the NIST ThermoML archive (doi:10.1021/je800727f)

Details: for viscosity / mass density: 101.33 kPa, Liquid; for viscosity: dissipative quartz crystal microbalance from KSV (QCMZ500)

C[n+]1ccn(CCO)c1.F[B-](F)(F)F [1-(2-hydroxyethyl)-3-methylimidazolium tetrafluoroborate]
Details	mass density [kg/m3]	surface tension liquid-gas [mN/m]	viscosity [mPa·s]
293.15 K	–	–	1554
298.15 K	1308	–	974
303.15 K	1304.7	–	–
308.15 K	1301.4	–	477
313.15 K	1296.1	–	–
318.15 K	1294.7	–	257
323.15 K	1291.5	–	–
328.15 K	1288.3	–	156
572 K	–	64.7	–
577.78 K	–	64.6	–
587.55 K	–	64	–
597.81 K	–	63.5	–
607.58 K	–	62.7	–
626.51 K	–	61.7	–
645.35 K	–	59.9	–
665.48 K	–	59.1	–
684.42 K	–	57.5	–
703.95 K	–	56.4	–
725.28 K	–	55.4	–
743.71 K	–	53.6	–

CCCCCCCC[n+]1ccn(C)c1.F[B-](F)(F)F [1-methyl-3-octylimidazolium tetrafluoroborate]
Details	mass density [kg/m3]	surface tension liquid-gas [mN/m]	viscosity [mPa·s]
293.15 K	–	–	413
298.15 K	1100.5	–	325
308.15 K	1093.7	–	205
318.15 K	1087.1	–	129
328.15 K	1080.5	–	86
570.95 K	–	32.7	–
586.35 K	–	32.4	–
606.62 K	–	31.3	–
625.26 K	–	30.2	–
646.29 K	–	28.1	–
665.98 K	–	27.7	–
685.41 K	–	27.2	–
704.75 K	–	25.3	–
724.78 K	–	24.5	–
743.71 K	–	23.7	–
